{"source": "ChEMBL document CHEMBL1201862", "about": "“PubChem BioAssay data set” (2004)", "test_in_all_cases": "NCI tumour cell line growth inhibition, 48 h", "key": {"786-0": {"system": "786-0"}, "A498": {"system": "A498"}, "A549": {"system": "A549"}, "ACHN": {"system": "ACHN"}, "CAKI-1": {"system": "CAKI-1"}, "CCRF-CEM": {"system": "CCRF-CEM"}, "COLO 205": {"system": "COLO 205"}, "DLD-1": {"system": "DLD-1"}, "DMS-114": {"system": "DMS-114"}, "DMS-273": {"system": "DMS-273"}, "EKVX": {"system": "EKVX"}, "HCC 2998": {"system": "HCC 2998"}, "HCT-116": {"system": "HCT-116"}, "HCT-15": {"system": "HCT-15"}, "HL-60": {"system": "HL-60"}, "HOP-18": {"system": "HOP-18"}, "HOP-62": {"system": "HOP-62"}, "HOP-92": {"system": "HOP-92"}, "HT-29": {"system": "HT-29"}, "IGROV-1": {"system": "IGROV-1"}, "K562": {"system": "K562"}, "KM-20L2": {"system": "KM-20L2"}, "KM12": {"system": "KM12"}, "LOX IMVI": {"system": "LOX IMVI"}, "LXFL 529": {"system": "LXFL 529"}, "M14": {"system": "M14"}, "M19-MEL": {"system": "M19-MEL"}, "MOLT-4": {"system": "MOLT-4"}, "Malme-3M": {"system": "Malme-3M"}, "NCI-H226": {"system": "NCI-H226"}, "NCI-H23": {"system": "NCI-H23"}, "NCI-H460": {"system": "NCI-H460"}, "NCI-H522": {"system": "NCI-H522"}, "OVCAR-3": {"system": "OVCAR-3"}, "OVCAR-4": {"system": "OVCAR-4"}, "OVCAR-5": {"system": "OVCAR-5"}, "OVCAR-8": {"system": "OVCAR-8"}, "RXF 393": {"system": "RXF 393"}, "SF-268": {"system": "SF-268"}, "SF-295": {"system": "SF-295"}, "SF-539": {"system": "SF-539"}, "SK-MEL-28": {"system": "SK-MEL-28"}, "SK-MEL-2": {"system": "SK-MEL-2"}, "SK-OV-3": {"system": "SK-OV-3"}, "SN12C": {"system": "SN12C"}, "SNB-19": {"system": "SNB-19"}, "SNB-75": {"system": "SNB-75"}, "SR": {"system": "SR"}, "SW-620": {"system": "SW-620"}, "TK-10": {"system": "TK-10"}, "U-251": {"system": "U-251"}, "UACC-257": {"system": "UACC-257"}, "UACC-62": {"system": "UACC-62"}, "UO-31": {"system": "UO-31"}, "XF498": {"system": "XF498"}}, "note": "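Growth conditions: 96-well plates. Treatment: test compound, 48 hours, 5 concentrations. Analysis: linear interpolation between bracketing concentrations; unreached endpoints set to highest concentration. At the GI50, growth is halved.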 The source made the active and inactive calls. Cut-off read from the data, not from the text of the source: active = GI50 up to about 1.1 µM and inactive = higher.", "data": [{"smiles": "CC(C)(C)c1cc2c3c(c1)c(=O)c1cccc4c(O)c5cccc(c2=O)c5c-3c41", "values": [{"measurement": "GI50", "setting": "786-0", "value": "84.7 µM (inactive)"}, {"measurement": "GI50", "setting": "A498", "value": "99.1 µM (inactive)"}, {"measurement": "GI50", "setting": "A549", "value": "> 100 µM (inactive)"}, {"measurement": "GI50", "setting": "ACHN", "value": "> 100 µM (inactive)"}, {"measurement": "GI50", "setting": "CAKI-1", "value": "> 100 µM (inactive)"}, {"measurement": "GI50", "setting": "CCRF-CEM", "value": "45.1 µM (inactive)"}, {"measurement": "GI50", "setting": "COLO 205", "value": "> 100 µM (inactive)"}, {"measurement": "GI50", "setting": "DLD-1", "value": "61 µM (inactive)"}, {"measurement": "GI50", "setting": "DMS-114", "value": "10 µM (inactive)"}, {"measurement": "GI50", "setting": "DMS-273", "value": "26.1 µM (inactive)"}, {"measurement": "GI50", "setting": "EKVX", "value": "> 100 µM (inactive)"}, {"measurement": "GI50", "setting": "HCC 2998", "value": "0.0105 µM (active)"}, {"measurement": "GI50", "setting": "HCT-116", "value": "59.7 µM (inactive)"}, {"measurement": "GI50", "setting": "HCT-15", "value": 48.5, "unit": "µM"}, {"measurement": "GI50", "setting": "HL-60", "value": "58.5 µM (inactive)"}, {"measurement": "GI50", "setting": "HOP-18", "value": "> 100 µM (inactive)"}, {"measurement": "GI50", "setting": "HOP-62", "value": "47 µM (inactive)"}, {"measurement": "GI50", "setting": "HOP-92", "value": "36.6 µM (inactive)"}, {"measurement": "GI50", "setting": "HT-29", "value": "27.7 µM (inactive)"}, {"measurement": "GI50", "setting": "IGROV-1", "value": "> 100 µM (inactive)"}, {"measurement": "GI50", "setting": "K562", "value": "38.5 µM (inactive)"}, {"measurement": "GI50", "setting": "KM-20L2", "value": "33.2 µM (inactive)"}, {"measurement": "GI50", "setting": "KM12", "value": "38.1 µM (inactive)"}, {"measurement": "GI50", "setting": "LOX IMVI", "value": "41.2 µM (inactive)"}, {"measurement": "GI50", "setting": "LXFL 529", "value": "> 100 µM (inactive)"}, {"measurement": "GI50", "setting": "M14", "value": "40.7 µM (inactive)"}, {"measurement": "GI50", "setting": "M19-MEL", "value": "> 100 µM (inactive)"}, {"measurement": "GI50", "setting": "MOLT-4", "value": "38.1 µM (inactive)"}, {"measurement": "GI50", "setting": "Malme-3M", "value": "> 100 µM (inactive)"}, {"measurement": "GI50", "setting": "NCI-H226", "value": "> 100 µM (inactive)"}, {"measurement": "GI50", "setting": "NCI-H23", "value": "68.4 µM (inactive)"}, {"measurement": "GI50", "setting": "NCI-H460", "value": "54.1 µM (inactive)"}, {"measurement": "GI50", "setting": "NCI-H522", "value": "> 100 µM (inactive)"}, {"measurement": "GI50", "setting": "OVCAR-3", "value": "40.4 µM (inactive)"}, {"measurement": "GI50", "setting": "OVCAR-4", "value": "> 100 µM (inactive)"}, {"measurement": "GI50", "setting": "OVCAR-5", "value": "92.5 µM (inactive)"}, {"measurement": "GI50", "setting": "OVCAR-8", "value": "> 100 µM (inactive)"}, {"measurement": "GI50", "setting": "RXF 393", "value": "34 µM (inactive)"}, {"measurement": "GI50", "setting": "SF-268", "value": "> 100 µM (inactive)"}, {"measurement": "GI50", "setting": "SF-295", "value": "60.1 µM (inactive)"}, {"measurement": "GI50", "setting": "SF-539", "value": "10 µM (inactive)"}, {"measurement": "GI50", "setting": "SK-MEL-28", "value": "10 µM (inactive)"}, {"measurement": "GI50", "setting": "SK-MEL-2", "value": "24.7 µM (inactive)"}, {"measurement": "GI50", "setting": "SK-OV-3", "value": "> 100 µM (inactive)"}, {"measurement": "GI50", "setting": "SN12C", "value": "> 100 µM (inactive)"}, {"measurement": "GI50", "setting": "SNB-19", "value": "> 100 µM (inactive)"}, {"measurement": "GI50", "setting": "SNB-75", "value": "> 100 µM (inactive)"}, {"measurement": "GI50", "setting": "SR", "value": "15.3 µM (inactive)"}, {"measurement": "GI50", "setting": "SW-620", "value": "> 100 µM (inactive)"}, {"measurement": "GI50", "setting": "TK-10", "value": "> 100 µM (inactive)"}, {"measurement": "GI50", "setting": "U-251", "value": "57.7 µM (inactive)"}, {"measurement": "GI50", "setting": "UACC-257", "value": "> 100 µM (inactive)"}, {"measurement": "GI50", "setting": "UACC-62", "value": "> 100 µM (inactive)"}, {"measurement": "GI50", "setting": "UO-31", "value": "> 100 µM (inactive)"}, {"measurement": "GI50", "setting": "XF498", "value": "35.5 µM (inactive)"}]}]}
